The compound `O=C1Nc2ccccc2N(C(=O)N2CCCC(CCCN3CCCCC3)C2)c2ncccc21` (centres undefined) returned a melting point of 166 to 167 °C.

Compound `Cc1c(CC=CCCC(=O)O)cccc1C(=O)c1ccc(Cl)cc1` had a melting point of 73 °C.

Regarding `CC(=O)C=Cc1ccc(NS(C)(=O)=O)c(Sc2ccc(F)cc2F)c1`, the melting point lay in the range of 119 to 120 °C.

The compound `CCCCCCCCNC(=O)c1ccc(O)c(O)c1` came in with a melting point of 118 to 120 °C.

Take `CCc1nc(NC(C)=O)nc(NC(C)c2cccs2)n1` (centres undefined): the melting point was determined as 153 °C.

On to `O=C(Nc1cccnn1)N1CCN(c2cc(-c3ccccc3F)ncn2)CC1`, for which the melting point fell in the range of 207 to 208 °C.

As to `C#CCOc1cc(-n2nc(CC)c(CC)c2CC)c(F)cc1Cl`, the melting point is 62 to 65 °C.

For `N#CC(C#N)=C(NCCCN1CCCCC1)NCCCN1CCCCC1`, the melting point lay in the range of 110 to 112 °C.

As to `CN(C)c1ncnc2[nH]c(-c3ccc(CO)cc3)cc12`, the melting point was in the range of 306 to 309 °C.

For the compound `Oc1ccc2nc(-n3ccnc3)nc(NCc3ccccc3)c2c1`, the melting point came to 230 °C.

In turn, `N#CC(c1ccccc1)(c1ccccc1)[C@H]1CCCN(CCc2ccc3c(c2)CCO3)C1` gave a melting point of 137 to 140 °C.

The compound `N#Cc1ccccc1N1CCCN(Cc2cc3cc(F)ccc3[nH]2)CC1` gave a melting point of 194 to 198 °C.

`O=C(O)CCC(=O)c1cccc(C(F)(F)F)c1` gave a melting point of 80 to 82 °C.

Regarding `CCC(NC(=O)OCc1ccccc1)C(=O)Nc1ccc(-n2nc(C(F)(F)F)cc2C(F)(F)F)cc1` (centres undefined), the melting point was 158 to 160 °C.

`O=C(NC1CCCCC1)NS(=O)(=O)c1ccc(CCNC(=O)N2CCCCC2=O)cc1` came in with a melting point of 197 to 199 °C.

`O=C(c1ccc(F)cc1)c1c(OCc2ccccc2)c(=O)ccn1CCO` showed a melting point of 182 to 183 °C.

With `NC1CCN(c2nc3c(cc2F)c(=O)c(C(=O)O)cn3C2CC2)C1` (centres undefined), the melting point lay within 266 to 267 °C.

For `O=c1ccc(-c2c(-c3ccccc3)nn3ccccc23)nn1C1CCNCC1`, the melting point lay within 115 to 117 °C.

`O=S(=O)(c1ccccc1)c1c[nH]c2c(CCN3CCN(Cc4ccccc4)CC3)cccc12` had a melting point of 80 to 82 °C.

As to `CC(C)(C)c1ccc(S(=O)(=O)NC(=O)C(Oc2ccc3c(c2)C(=O)NC3=O)c2ccc3c(c2)OCO3)cc1` (centres undefined), the melting point is 215 °C.

`O=C(O)c1ccccc1N1C(=O)c2cccc([N+](=O)[O-])c2C1=O`: the melting point fell in the range of 190 to 192 °C.

As to `O=C1NCCCC1Cc1ccccc1` (centres undefined), the melting point lay within 120 to 123 °C.

Take `COC(=O)c1ccc(N2C(=O)c3ccccc3C2=O)cc1O`: the melting point was 218 to 219 °C.

The compound `O=c1[nH]c2c(I)c([N+](=O)[O-])c(Cl)c([N+](=O)[O-])c2[nH]c1=O` had a melting point of 240 to 242 °C.

With `COc1ccc(-c2nc(Sc3cccc(OC)c3)n(C3CCCCO3)c2-c2ccc(OC)cc2)cc1` (centres undefined), the melting point worked out at 123 °C.

Regarding `Cc1cc2c(c(C)c1C)C(=O)C(C)(C)O2`, the melting point was in the range of 77 to 78 °C.

Turning to `COc1ccc(CCCC(=O)Nc2ncc([N+](=O)[O-])s2)cc1`, the melting point was in the range of 176 to 177 °C.

Regarding `COC(=O)c1c2ccccc2nc2c3ccccc3n(C)c12`, the melting point was 127 °C.

With `CC(=O)NNc1ccc(NC(=S)N(C)C)cc1`, the melting point was 187 to 189 °C.

On to `COc1c(Cl)ccc(-c2cc(N)c(Cl)c(C(=O)NOCc3ccoc3)n2)c1F`, for which the melting point was 160 to 162 °C.

On to `CS(=O)(=O)c1ccc(-c2cc3cccccc-3c2-c2ccccc2)cc1`, for which the melting point was in the range of 139 to 140 °C.

`O=C(Oc1cc(OC(=O)c2cc(O)cc(O)c2)c2ccccc2c1)c1cc(O)cc(O)c1`: the melting point is 167 to 169 °C.

The compound `Cc1c(NC(=O)c2ccc(-c3ccccc3F)cc2F)ccc2cc(CN3CCCC3)cnc12` returned a melting point of 159 to 160 °C.

With `COc1ccc(Cn2c(=O)[nH]c(=O)c3[nH]c(C(C)C)nc32)cc1OC1CCCC1`, the melting point lay in the range of 282 to 283 °C.

Turning to `O=C(NC(=O)c1c(F)cccc1F)Nc1ccc(SC(F)(F)F)cc1F`, the melting point was in the range of 173 to 175 °C.

`Cc1ccc2cccc(OCc3c(Cl)ccc(S(=O)(=O)N(C)C(C)(C)C)c3Cl)c2n1` yielded a melting point of 160 to 162 °C.

For `Nc1ccc(CNc2ccccn2)cc1O`, the melting point was in the range of 136 to 138 °C.

The compound `Cc1nc2cc(N)c(N)cc2n1C` had a melting point of 212 °C.

`COc1ccc(Cn2c(-c3ccco3)nc3c(-c4ccco4)ncnc32)cc1` displayed a melting point of 134 to 136 °C.

On to `CCCN(CCC)C1Cc2cc3c(cc2C1)C(=O)N(Cc1ccc(C#N)cc1)C3` (centres undefined), for which the melting point was 141 to 145 °C.

Turning to `COC(=O)CCCc1cc2nc(Cl)ccc2n1S(=O)(=O)c1cc(Cl)ccc1Cl`, the melting point was 95 to 105 °C.

For `COc1ccc(C(=O)C2=C(c3ccccc3)c3ccc(OC)cc3CC2)cc1`, the melting point was 107 to 108 °C.

The compound `N#Cc1cnc(Nc2ccc(OCCn3cncn3)cc2)nc1-c1ccccc1` showed a melting point of 105 °C.

Consider `CCC(CCC(=C(C#N)C(N)=O)c1cc(O)c(O)c(O)c1)NC(=O)C(C#N)=Cc1cc(O)c(O)c(O)c1` (centres undefined), for which the melting point is more than 300 °C.

Compound `CC(C)(C)OC(=O)Nc1ccc(Nc2nc(-c3ccc4cc(OCc5ccccc5)ccc4c3)cc3ccnn23)cc1` returned a melting point of 189 °C.

Compound `Oc1ccc(-c2c3ccccc3cc3oc4ccccc4c23)c(O)c1` had a melting point of 201 to 202 °C.

Compound `CCOC(=O)c1cnc2c(c(C)nn2C)c1N(C)S(=O)(=O)c1ccc(Oc2ccncc2)cc1` showed a melting point of 117 to 119 °C.

In turn, `CNC(=O)Nc1c2c(nc3sccc13)CCCC2` registered a melting point of 253 to 255 °C.

As to `COC(=O)c1cc(S(C)(=O)=O)ccc1OCc1ccccn1`, the melting point lay within 189 to 192 °C.

Compound `CC(C)(C)c1cc(SCCc2n[nH]c(=O)o2)cc(C(C)(C)C)c1O` had a melting point of 86 to 87.5 °C.

In the case of `O=C(Cl)c1cccnc1Nc1cccc(Cl)c1`, the melting point was in the range of 112 to 115 °C.

In the case of `CCCCc1oc2ccccc2c1C(=O)NCc1ccc2c(Br)c(OC(Cc3ccccc3)C(=O)OC)ccc2c1` (centres undefined), the melting point was in the range of 110 to 112 °C.

`CC(C)Oc1ccc(CCCO)c(OCc2ccc(Cl)cc2Cl)c1` registered a melting point of 75.5 to 76.5 °C.

Consider `C=CC(=O)OCCCOc1ccc(-c2ccc(C#N)cc2)cc1`, for which the melting point stood at 70 °C.

On to `OCCNc1ccnc2ccccc12`, for which the melting point lay in the range of 152 to 154 °C.

Compound `Cc1ccn2c(=O)c(C(=O)NC3CCCC3)cnc2c1` returned a melting point of 220 to 222 °C.

Take `COC(=O)CNc1ccc(OC(=O)CC2CCN(c3ccncc3)CC2)cc1`: the melting point lay in the range of 120 to 122 °C.

As to `O=C(O)C1=Cc2cc(Cl)c(Oc3ccc(F)c(F)c3)cc2OC1C(F)(F)F` (centres undefined), the melting point lay in the range of 192 to 193 °C.

Compound `CCOC(=O)c1ccc(-c2ccc(OCCNC3CC3)c(-c3ccc4c(c3)C(C)(C)CCC4(C)C)c2)cc1` registered a melting point of 141 °C.

For the compound `Cc1cccc(C)c1NCCNCC(O)COc1cccc2[nH]ncc12` (centres undefined), the melting point fell in the range of 127 to 128 °C.

With `C=C(Br)c1cc(O)cc2nc(-c3ccc(O)cc3F)oc12`, the melting point was 235 to 237 °C.

As to `O=Cc1ccc(N2CCC(O)CC2)cc1`, the melting point fell in the range of 115 to 118 °C.

In turn, `O=C(NC1CCN(CC23CC(c4ccccc42)c2ccccc23)CC1)NC1CCCCO1` (centres undefined) showed a melting point of 211 to 212 °C.

Take `Cc1csc2[nH]c(=O)oc(=O)c12`: the melting point is 220 °C.

As for `CCOC(=O)C1=C(COCc2nnnn2CCN2CCN(C(=O)NC)CC2)NC(C)=C(C(=O)OC)C1c1cccc(Cl)c1Cl` (centres undefined), the melting point is 95 to 96 °C.

Turning to `CCOC(=O)c1c(C(F)(F)F)nc(C(F)(F)Cl)c(C(=O)OC)c1NC(C)C`, the melting point was in the range of 43.5 to 45 °C.

On to `COCCCc1nc(C(F)F)ccc1C(=O)O`, for which the melting point is 86 to 87 °C.

`CCOC(=O)C=Cc1cc(Cl)ccc1Cl` came in with a melting point of 34 to 36 °C.

On to `CN(C)c1cncc(C#N)c1`, for which the melting point was 104 °C.

Compound `CNC(=O)c1ccc(N2CCC(OC3CCN(C4CCC4)CC3)CC2)cn1` had a melting point of 110 °C.

In turn, `CC(=O)Nc1cc2c(cc1[N+](=O)[O-])OC(C)(C)O2` displayed a melting point of 173 to 174 °C.

Regarding `CNS(=O)(=O)c1cc(S(=O)(=O)NCc2ccccc2)c(Cl)cc1N`, the melting point fell in the range of 151 to 152 °C.

With `CCOC(=O)n1c(C)c(Cc2ccc(Cl)cc2Cl)c2nc(C#N)ccc21`, the melting point was in the range of 112 to 113 °C.

In the case of `CCOC(=O)NC(C)CC(NC(=O)OCC)NC(=O)OCC` (centres undefined), the melting point was in the range of 103 to 105 °C.

Turning to `CC(=O)n1ccc(-c2c(-c3ccncc3)c(-c3ccc(F)cc3)nn2CCO)cc1=O`, the melting point lay in the range of 220 to 221 °C.

On to `O=C(O)c1cccc(-c2cccc([N+](=O)[O-])c2)c1`, for which the melting point was in the range of 271 to 272 °C.

On to `CCS(=O)(=O)c1cc(C(=O)NCC2CCCN2CC2=CCCC2)c(OC)cc1N` (centres undefined), for which the melting point lay within 125 to 126 °C.

`COc1cccc(C(CC(N)=O)CC(N)=O)c1` displayed a melting point of 161 to 162 °C.

Take `CCCc1ccc(NC(=O)c2cccnc2NCc2ccc(=O)[nH]c2)cc1C(F)(F)F`: the melting point lay within 220 to 224 °C.

`CCSC1=CCC2C3CCC4=CC(=O)C=CC4(C)C3(F)C(OC(C)=O)CC12C` (centres undefined) displayed a melting point of 211 to 215 °C.

Take `COc1cc(C2=CCN(S(=O)(=O)CC(=O)NO)CC2)ccc1-c1ccccc1`: the melting point lay in the range of 175 to 177 °C.

Turning to `COc1cccc(CN2CCc3cc(O)ccc3C2)c1OC`, the melting point lay in the range of 111 to 115 °C.

Compound `O=[N+]([O-])c1ccc(C(O)c2ccccn2)c(Cl)c1` (centres undefined) yielded a melting point of 124 to 127 °C.

`COC(=O)CCc1ncccc1O` registered a melting point of 94 to 96 °C.

In turn, `CNC(=O)Oc1cccc(C2CCCN2Cc2ccncc2)c1` (centres undefined) registered a melting point of 92 to 105 °C.

In turn, `O=C1c2cccc3cccc(c23)C(=O)N1CCCCCCBr` returned a melting point of 95 to 96 °C.

For `CCCCNc1cccnc1S(N)(=O)=O`, the melting point is 100 to 101 °C.

In turn, `CCOC(=O)c1cn(C2CC2)c2c(C)c(F)c(F)c(N)c2c1=O` gave a melting point of 182 to 186 °C.

`CC[C@@H](NC(=O)N1CC(=O)NC[C@@H](Cc2cc(Cl)ccc2OC)C1=O)c1cccc(C(=O)O)c1` had a melting point of 121 to 123 °C.

A word on the melting point: it is the temperature, or range, at which the solid turns liquid.
